From publication PMC4774911, “Biochemical Screening of Five Protein Kinases from Plasmodium falciparum against 14,000 Cell-Active Compounds” (PLoS ONE, 2016)
Several values for one entry are separate records, joined by “and”; a condition that tells them apart may be missing. Identical values can stand only once.

Assays:
Assay in all cases: biochemical
Design in all cases: endogenous in cells; host or cells: K562 cell extract; species or system K562 (extract); replicate k of n = 2 (each experiment ID is one independent experiment; two experiment IDs per compound)
Conditions in all cases: read-out: KDapp
MAPKAPK5 = target: T1, MAPKAPK5 (Homo sapiens, UniProt Q8IW41)
T1 sequence (Q8IW41 1-473): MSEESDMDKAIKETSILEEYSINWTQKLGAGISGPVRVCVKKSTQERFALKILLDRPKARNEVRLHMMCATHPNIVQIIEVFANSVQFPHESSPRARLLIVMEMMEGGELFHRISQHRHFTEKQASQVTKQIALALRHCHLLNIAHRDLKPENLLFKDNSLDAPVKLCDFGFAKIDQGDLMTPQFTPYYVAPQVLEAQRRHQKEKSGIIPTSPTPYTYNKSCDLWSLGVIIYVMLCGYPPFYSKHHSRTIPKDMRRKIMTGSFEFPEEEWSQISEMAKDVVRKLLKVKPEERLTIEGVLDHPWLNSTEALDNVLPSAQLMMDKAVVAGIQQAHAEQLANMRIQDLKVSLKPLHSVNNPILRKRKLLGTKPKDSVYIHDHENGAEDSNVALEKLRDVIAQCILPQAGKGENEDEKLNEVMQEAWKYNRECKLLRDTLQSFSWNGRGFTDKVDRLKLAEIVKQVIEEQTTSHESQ

PIP4K2C = target: T2, PIP4K2C (Homo sapiens, UniProt Q8TBX8)
T2 sequence (Q8TBX8 1-421): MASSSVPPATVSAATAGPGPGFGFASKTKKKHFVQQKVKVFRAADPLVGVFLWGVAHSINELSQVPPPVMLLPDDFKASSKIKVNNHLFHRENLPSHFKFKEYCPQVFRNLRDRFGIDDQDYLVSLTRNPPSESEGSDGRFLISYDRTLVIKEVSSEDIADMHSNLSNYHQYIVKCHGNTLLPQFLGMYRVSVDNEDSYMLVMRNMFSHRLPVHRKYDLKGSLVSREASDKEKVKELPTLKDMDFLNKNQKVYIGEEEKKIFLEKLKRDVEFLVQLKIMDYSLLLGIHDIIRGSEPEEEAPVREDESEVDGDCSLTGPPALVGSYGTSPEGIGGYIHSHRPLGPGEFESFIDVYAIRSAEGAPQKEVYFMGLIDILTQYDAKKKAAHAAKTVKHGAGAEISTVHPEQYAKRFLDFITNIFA

MAPK8 = MAPK8 (Homo sapiens, UniProt P45983)
MAPK8, sequence (P45983 whole entry): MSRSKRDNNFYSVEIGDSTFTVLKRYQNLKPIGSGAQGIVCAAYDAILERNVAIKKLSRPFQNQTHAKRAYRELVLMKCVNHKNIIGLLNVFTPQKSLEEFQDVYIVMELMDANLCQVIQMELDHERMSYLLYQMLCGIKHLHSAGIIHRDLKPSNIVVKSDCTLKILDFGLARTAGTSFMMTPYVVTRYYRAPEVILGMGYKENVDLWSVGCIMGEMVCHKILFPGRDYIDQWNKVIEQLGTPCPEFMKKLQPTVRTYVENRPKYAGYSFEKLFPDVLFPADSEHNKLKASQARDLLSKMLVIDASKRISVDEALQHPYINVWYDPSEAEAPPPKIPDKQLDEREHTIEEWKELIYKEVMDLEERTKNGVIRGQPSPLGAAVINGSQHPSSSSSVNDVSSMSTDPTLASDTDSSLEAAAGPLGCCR

STK38L = STK38L (Homo sapiens, UniProt Q9Y2H1)
STK38L, sequence (Q9Y2H1 whole entry): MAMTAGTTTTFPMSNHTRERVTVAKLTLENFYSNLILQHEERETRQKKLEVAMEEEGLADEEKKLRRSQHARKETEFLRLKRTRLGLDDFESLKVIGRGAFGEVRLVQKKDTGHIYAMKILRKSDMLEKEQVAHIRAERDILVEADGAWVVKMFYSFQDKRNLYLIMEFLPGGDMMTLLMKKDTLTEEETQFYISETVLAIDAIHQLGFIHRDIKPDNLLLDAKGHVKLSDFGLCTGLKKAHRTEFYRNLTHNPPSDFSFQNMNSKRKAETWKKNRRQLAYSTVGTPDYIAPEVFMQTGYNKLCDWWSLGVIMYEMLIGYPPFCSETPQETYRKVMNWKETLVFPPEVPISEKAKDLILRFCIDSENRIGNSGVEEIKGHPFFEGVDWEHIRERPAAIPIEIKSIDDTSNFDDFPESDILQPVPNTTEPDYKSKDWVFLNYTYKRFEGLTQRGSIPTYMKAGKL

RPS6KA5 = RPS6KA5 (Homo sapiens, UniProt O75582)
RPS6KA5, sequence (O75582 whole entry): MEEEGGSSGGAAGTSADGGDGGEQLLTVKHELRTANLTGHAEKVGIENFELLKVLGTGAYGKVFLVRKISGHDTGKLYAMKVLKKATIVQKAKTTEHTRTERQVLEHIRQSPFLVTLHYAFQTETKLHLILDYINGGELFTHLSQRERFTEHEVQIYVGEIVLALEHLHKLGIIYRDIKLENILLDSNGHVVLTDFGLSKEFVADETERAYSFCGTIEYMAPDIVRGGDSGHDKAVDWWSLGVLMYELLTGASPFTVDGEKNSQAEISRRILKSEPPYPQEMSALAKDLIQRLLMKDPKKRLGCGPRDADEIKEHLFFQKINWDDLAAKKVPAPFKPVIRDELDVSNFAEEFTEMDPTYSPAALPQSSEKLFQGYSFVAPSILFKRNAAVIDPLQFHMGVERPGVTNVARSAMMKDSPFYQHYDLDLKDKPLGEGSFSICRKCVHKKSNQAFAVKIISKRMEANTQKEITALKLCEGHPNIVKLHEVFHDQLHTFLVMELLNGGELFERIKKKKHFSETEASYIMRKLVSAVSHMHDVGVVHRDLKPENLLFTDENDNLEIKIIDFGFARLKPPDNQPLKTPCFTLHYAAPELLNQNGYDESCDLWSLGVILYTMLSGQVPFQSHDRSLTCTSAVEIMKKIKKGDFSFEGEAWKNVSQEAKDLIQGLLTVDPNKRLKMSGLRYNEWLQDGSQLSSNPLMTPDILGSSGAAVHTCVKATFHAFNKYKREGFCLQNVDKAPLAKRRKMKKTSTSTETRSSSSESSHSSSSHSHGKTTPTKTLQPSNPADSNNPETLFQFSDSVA

CDK2 = CDK2 (Homo sapiens, UniProt P24941)
PIM2 = PIM2 (Homo sapiens, UniProt Q9P1W9)
PIM2, sequence (Q9P1W9 whole entry): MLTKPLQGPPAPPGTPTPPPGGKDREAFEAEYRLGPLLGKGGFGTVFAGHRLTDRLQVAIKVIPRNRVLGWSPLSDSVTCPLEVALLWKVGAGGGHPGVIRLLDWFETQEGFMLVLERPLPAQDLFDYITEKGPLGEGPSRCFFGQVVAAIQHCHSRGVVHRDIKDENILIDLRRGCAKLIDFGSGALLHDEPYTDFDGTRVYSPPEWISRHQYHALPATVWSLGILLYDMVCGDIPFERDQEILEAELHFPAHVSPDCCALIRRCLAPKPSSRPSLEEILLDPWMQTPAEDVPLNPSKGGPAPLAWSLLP

## CN(C)CC(O)COc1ccc(Nc2ncc([N+](=O)[O-])c(Nc3ccccc3O)n2)cc1.O=C(O)C(F)(F)F (stereo not shown) [TCMDC-141399]
MAPKAPK5
  Kd: 292 nM

## CN1CCN(c2ccc(Nc3ncc(C#N)c(Nc4ccccc4C(N)=O)n3)cc2)CC1.Cl [TCMDC-134116]
PIP4K2C
  Kd: 691 nM and 713 nM
MAPK8
  Kd: 363 nM and 1230 nM
STK38L
  Kd: 571 nM
RPS6KA5
  Kd: 393 nM and 590 nM
CDK2
  Kd: 135 nM and 131 nM
PIM2
  Kd: 2970 nM
